Key:
SGC7901 cells = test: MTT assay, photodynamic therapy on SGC7901 cells; type: cell-based, human
Excerpt: (§1) The cells in logarithmic growth phase were collected and inoculated on 24-well culture plates. When reaching 70%-80% confluence, cells were divided randomly into the following groups: control (the parallel control group without photosensitizer and irradiation), irradiation (irradiation treatment alone without photosensitizer); (photosensitizer treatment alone without irradiation), photodynamic treatment (treatment by photosensitizer in combination with irradiation). For the photosensitizer alone treatment group and photodynamic treatment group, an appropriate amount of Photohexer-1 (P-1) or Photohexer-2 (P-2) was respectively added away from light to give a final concentration of 0.8, 1.6, 3.2, 6.4 μM. Each group set 3 replicates. Cells were incubated with the active agent, different treatments were carried out according to the grouping. […] After treatment and digestion of each group of cells, it was inoculated into a 96-well plate at 100 μL/well, and four wells were set for each treatment. MTT assay was performed after 24 h from inoculation: 20 μL MTT solution was added to each well under the condition away from light, and the culture was continued for 4 hours. 150 μL DMSO was added to each well after discarding the supernatant. After 15 min of dissolution, the absorbance value (OD value) was measured using a microplate reader and the relative survival rate of cells was calculated according to the following formula: […]

SW-620 cells = test: MTT assay, photodynamic therapy on SW-620 cells; type: cell-based, human
Excerpt: as §1

MDA-MB-231 cells = test: MTT assay, photodynamic therapy on MDA-MB-231 cells; type: cell-based, human
Excerpt: as §1

MCF-7 cells = test: MTT assay, photodynamic therapy on MCF-7 cells; type: cell-based, human
Excerpt: as §1

MCF-7/ADR cells = test: MTT assay, photodynamic therapy on MCF-7/ADR cells; type: cell-based, human
Excerpt: as §1

CT26 cells = test: MTT assay, photodynamic therapy on CT26 cells; type: cell-based, murine
Excerpt: as §1

[1] = Storage stability determination; type: physicochemical; conditions: 3 months of storage in dark at 2-4
Experimental: The storage stability of Photohexer-1 and Photohexer-2 was determined by conventional methods in the art.

the cell lines = test: MTT assay, summary over the cell lines (photosensitizer alone); type: cell-based; conditions: without light irradiation; selected drug concentration range (0.8-6.4 μM)
Excerpt: The cells in logarithmic growth phase were collected and inoculated on 24-well culture plates. When reaching 70%-80% confluence, cells were divided randomly into the following groups: control (the parallel control group without photosensitizer and irradiation), irradiation (irradiation treatment alone without photosensitizer); (photosensitizer treatment alone without irradiation), photodynamic treatment (treatment by photosensitizer in combination with irradiation). For the photosensitizer alone treatment group and photodynamic treatment group, an appropriate amount of Photohexer-1 (P-1) or Photohexer-2 (P-2) was respectively added away from light to give a final concentration of 0.8, 1.6, 3.2, 6.4 μM. Each group set 3 replicates. Cells were incubated with the active agent, different treatments were carried out according to the grouping. Three different light intensities were selected for the photodynamic treatment group, which were 2.6, 5.2 and 12.4 J/cm^2, respectively. After treatment and digestion of each group of cells, it was inoculated into a 96-well plate at 100 μL/well, and four wells were set for each treatment. […] After 15 min of dissolution, the absorbance value (OD value) was measured using a microplate reader and the relative survival rate of cells was calculated according to the following formula: […]

[2] = 0.8 μM alone treatment, without irradiation
[3] = 0.8 μM combined with 2.6 J/cm^2 light irradiation
[4] = 0.8 μM combined with 5.2 J/cm^2 light irradiation
[5] = 0.8 μM combined with 10.4 J/cm^2 light irradiation
[6] = 1.6 μM alone treatment, without irradiation
[7] = 1.6 μM combined with 2.6 J/cm^2 light irradiation
[8] = 1.6 μM combined with 5.2 J/cm^2 light irradiation
[9] = 1.6 μM combined with 10.4 J/cm^2 light irradiation
[10] = 3.2 μM alone treatment, without irradiation
[11] = 3.2 μM combined with 2.6 J/cm^2 light irradiation
[12] = 3.2 μM combined with 5.2 J/cm^2 light irradiation
[13] = 3.2 μM combined with 10.4 J/cm^2 light irradiation
[14] = 6.4 μM alone treatment, without irradiation
[15] = 6.4 μM combined with 2.6 J/cm^2 light irradiation
[16] = 6.4 μM combined with 5.2 J/cm^2 light irradiation
[17] = 6.4 μM combined with 10.4 J/cm^2 light irradiation

C=Cc1c(C)c2cc3nc(cc4[nH]c(cc5nc(cc1[nH]2)C(C)=C5C(C)OCCCCCC)c(C)c4CCC(=O)[O-])C(CCC(=O)[O-])=C3C.[Na+].[Na+] (stereo not drawn) [Photohexer P-2, 4-(1-hexyloxyethyl)-6,7-bis(propionatesodium)-1,3,5,8-tetramethyl-2-vinylporphyrin]
photodynamic activity compared between P-1 and P-2 (SGC7901 cells): better than P-1 | Cell survival rate (SGC7901 cells; [2]): 100.80 ± 0.91% | Cell survival rate (SGC7901 cells; [3]): 83.27 ± 0.82% | Cell survival rate (SGC7901 cells; [4]): 76.47 ± 1.65% | Cell survival rate (SGC7901 cells; [5]): 66.13 ± 0.60% | Cell survival rate (SGC7901 cells; [6]): 97.25 ± 1.34% | Cell survival rate (SGC7901 cells; [7]): 70.77 ± 7.19% | Cell survival rate (SGC7901 cells; [8]): 60.00 ± 9.82% | Cell survival rate (SGC7901 cells; [9]): 49.32 ± 12.57% | Cell survival rate (SGC7901 cells; [10]): 82.72 ± 0.54% | Cell survival rate (SGC7901 cells; [11]): 52.91 ± 1.96% | Cell survival rate (SGC7901 cells; [12]): 41.72 ± 0.35% | Cell survival rate (SGC7901 cells; [13]): 34.58 ± 0.66% | killing effect of photodynamic therapy (SGC7901 cells; drug-dose and light-intensity dependent): obvious killing effect | Cell survival rate (SW-620 cells; [2]): 101.79 ± 4.27% | Cell survival rate (SW-620 cells; [3]): 97.58 ± 3.86% | Cell survival rate (SW-620 cells; [4]): 96.11 ± 4.06% | Cell survival rate (SW-620 cells; [5]): 92.99 ± 3.86% | Cell survival rate (SW-620 cells; [6]): 96.58 ± 3.66% | Cell survival rate (SW-620 cells; [7]): 94.77 ± 2.99% | Cell survival rate (SW-620 cells; [8]): 90.19 ± 3.18% | Cell survival rate (SW-620 cells; [9]): 84.95 ± 3.02% | Cell survival rate (SW-620 cells; [10]): 93.16 ± 2.71% | Cell survival rate (SW-620 cells; [11]): 89.07 ± 2.34% | Cell survival rate (SW-620 cells; [12]): 82.00 ± 2.62% | Cell survival rate (SW-620 cells; [13]): 68.54 ± 2.77% | Cell survival rate (SW-620 cells; [14]): 85.21 ± 1.03% | Cell survival rate (SW-620 cells; [15]): 66.83 ± 1.12% | Cell survival rate (SW-620 cells; [16]): 58.46 ± 1.23% | Cell survival rate (SW-620 cells; [17]): 47.12 ± 1.04% | sensitivity compared between P-1 and P-2 (MDA-MB-231 cells): more sensitive than P-1 | Cell survival rate (MDA-MB-231 cells; [2]): 100.17 ± 4.03% | Cell survival rate (MDA-MB-231 cells; [3]): 87.82 ± 4.09% | Cell survival rate (MDA-MB-231 cells; [4]): 71.8 ± 4.16% | Cell survival rate (MDA-MB-231 cells; [5]): 52.23 ± 4.16% | Cell survival rate (MDA-MB-231 cells; [6]): 97.69 ± 3.63% | Cell survival rate (MDA-MB-231 cells; [7]): 73.80 ± 3.22% | Cell survival rate (MDA-MB-231 cells; [8]): 49.35 ± 3.46% | Cell survival rate (MDA-MB-231 cells; [9]): 45.69 ± 3.16% | Cell survival rate (MDA-MB-231 cells; [10]): 91.44 ± 2.57% | Cell survival rate (MDA-MB-231 cells; [11]): 59.92 ± 2.94% | Cell survival rate (MDA-MB-231 cells; [12]): 46.57 ± 2.43% | Cell survival rate (MDA-MB-231 cells; [13]): 40.31 ± 2.28% | Cell survival rate (MDA-MB-231 cells; [14]): 81.55 ± 1.21% | Cell survival rate (MDA-MB-231 cells; [15]): 49.18 ± 1.33% | Cell survival rate (MDA-MB-231 cells; [16]): 40.03 ± 1.12% | Cell survival rate (MDA-MB-231 cells; [17]): 31.15 ± 0.96% | Cell survival rate (MCF-7 cells; [2]): 98.46 ± 4.62% | Cell survival rate (MCF-7 cells; [3]): 89.08 ± 3.99% | Cell survival rate (MCF-7 cells; [4]): 76.83 ± 4.26% | Cell survival rate (MCF-7 cells; [5]): 72.40 ± 4.14% | Cell survival rate (MCF-7 cells; [6]): 84.93 ± 3.16% | Cell survival rate (MCF-7 cells; [7]): 65.11 ± 2.73% | Cell survival rate (MCF-7 cells; [8]): 48.15 ± 3.12% | Cell survival rate (MCF-7 cells; [9]): 41.81 ± 3.77% | Cell survival rate (MCF-7 cells; [10]): 82.94 ± 2.28% | Cell survival rate (MCF-7 cells; [11]): 51.79 ± 2.10% | Cell survival rate (MCF-7 cells; [12]): 44.80 ± 2.22% | Cell survival rate (MCF-7 cells; [13]): 34.81 ± 2.43% | Cell survival rate (MCF-7 cells; [14]): 80.23 ± 1.03% | Cell survival rate (MCF-7 cells; [15]): 40.31 ± 1.02% | Cell survival rate (MCF-7 cells; [16]): 35.46 ± 1.02% | Cell survival rate (MCF-7 cells; [17]): 26.14 ± 1.07% | cell toxicity (MCF-7/ADR cells): significant cell toxicity | Cell survival rate (MCF-7/ADR cells; [2]): 96.93 ± 4.47% | Cell survival rate (MCF-7/ADR cells; [3]): 94.88 ± 3.94% | Cell survival rate (MCF-7/ADR cells; [4]): 92.76 ± 4.32% | Cell survival rate (MCF-7/ADR cells; [5]): 90.99 ± 4.36% | Cell survival rate (MCF-7/ADR cells; [6]): 92.26 ± 3.26% | Cell survival rate (MCF-7/ADR cells; [7]): 74.79 ± 2.77% | Cell survival rate (MCF-7/ADR cells; [8]): 67.82 ± 3.12% | Cell survival rate (MCF-7/ADR cells; [9]): 54.66 ± 3.43% | Cell survival rate (MCF-7/ADR cells; [10]): 53.84 ± 2.58% | Cell survival rate (MCF-7/ADR cells; [11]): 50.37 ± 2.13% | Cell survival rate (MCF-7/ADR cells; [12]): 48.99 ± 2.16% | Cell survival rate (MCF-7/ADR cells; [13]): 46.57 ± 2.76% | Cell survival rate (MCF-7/ADR cells; [14]): 48.88 ± 1.13% | Cell survival rate (MCF-7/ADR cells; [15]): 43.68 ± 1.06% | Cell survival rate (MCF-7/ADR cells; [16]): 41.49 ± 0.96% | Cell survival rate (MCF-7/ADR cells; [17]): 34.75 ± 1.22% | photoactivity compared between P-1 and P-2 (CT26 cells): stronger than that of P-1 | Cell survival rate (CT26 cells; [2]): 94.08 ± 4.27% | Cell survival rate (CT26 cells; [3]): 83.97 ± 3.96% | Cell survival rate (CT26 cells; [4]): 82.55 ± 4.77% | Cell survival rate (CT26 cells; [5]): 70.66 ± 4.66% | Cell survival rate (CT26 cells; [6]): 92.09 ± 3.56% | Cell survival rate (CT26 cells; [7]): 61.29 ± 2.78% | Cell survival rate (CT26 cells; [8]): 49.85 ± 3.55% | Cell survival rate (CT26 cells; [9]): 38.89 ± 3.86% | Cell survival rate (CT26 cells; [10]): 76.30 ± 2.28% | Cell survival rate (CT26 cells; [11]): 44.29 ± 2.41% | Cell survival rate (CT26 cells; [12]): 39.69 ± 2.27% | Cell survival rate (CT26 cells; [13]): 26.01 ± 2.38% | Cell survival rate (CT26 cells; [14]): 50.49 ± 1.03% | Cell survival rate (CT26 cells; [15]): 34.11 ± 1.02% | Cell survival rate (CT26 cells; [16]): 28.61 ± 1.09% | Cell survival rate (CT26 cells; [17]): 18.82 ± 1.01% | storage stability (content change by HPLC test) [1]: no content change | cytotoxicity of alone treatment (the cell lines): did not produce significant cytotoxicity

Reference: patent US20170252442A1, “PHOTOHEXER COMPOUNDS AND PHARMACEUTICAL COMPOSITION AND USE THEREOF” (RAINBOW PHARMATECH LLC, priority 2014, published 2017)
